This note sets out measurements from PMC12040169 (PLOS Biology, 2025).

The data set can be described thus: in vitro. Particulars: human, hela cells, % viability.

In general, viability refers to a read-out of living cells in per cent, often relative to untreated cells. In the case of `c1ccc(CCN2CCC(N3CCOCC3)CC2)cc1` [CBK261928], the viability at 28.5 h, 10 µM amounted to 85.2%.
With `Cc1nc(-c2ccncc2)c2c(C)nn(-c3ccc(F)cc3)c2n1` [CBK288545] the figure was 89.2%; with `CN(C)C(=O)CN1C(=O)CC2(C1=O)C(=O)N(C)c1ccc(Cl)cc12` (stereo not shown) [CBK075232], 90.2%; with `CCCCNC(=O)c1ccc2c(c1)NC(=O)C(N1CCCC1)S2` (stereo not shown) [CBK071762], 98.4%.
The result for `CCOC(=O)c1ccc(S(=O)(=O)Nc2cc(C(=O)O)ccc2F)cc1` [CBK295308] reads 84%; that for `O=S(=O)(N1CCCCCC1)N1CCNCC1` [CBK269219C], 96.5%.
The result for `COC(=O)c1sccc1NS(=O)(=O)c1cc(F)c(Br)cc1F` [CBK004492] reads 103%; that for `CC(C)C(=O)N1C[C@H]2N(C)C(=O)c3ccccc3C(=O)[C@@]2(C)C1` [CBK284568], 97.8%; that for `Cc1ccc(S(=O)(=O)N2CCN(C(c3ccccc3)c3ccccc3)CC2)cc1[N+](=O)[O-]` [CBK293949], 103%.
On to `O=C(Nc1cccc2ccccc12)C1CCCN1S(=O)(=O)c1ccc(Cl)cc1` (stereo not shown) [CBK138930], for which the viability at 28.5 h, 10 µM was 92.9%.
With `O=P(O)(CN1CCCCC1)C1CCCCC1O` (stereo not shown) [CBK262325], the viability at 28.5 h, 10 µM came out at 87.1%.
Regarding `CCNS(=O)(=O)c1ccc2c(c1)N(Cc1ccc(CO)o1)CC2` [CBK306158], the viability at 28.5 h, 10 µM stood at 83.8%.
Consider `Cc1nn(Cc2cccc(C(=O)O)c2)c(C)c1Br` [CBK286950], for which the viability at 28.5 h, 10 µM was 100%.
In the case of `Cn1cccc1C(=O)N[C@H]1C[C@H]2C(=O)Nc3ccc(/C=C/c4ccccc4)cc3C(=O)N2C1` [CBK289367], the viability at 28.5 h, 10 µM is 86.7%.
In the case of `Cc1csc(NC(=O)c2ncoc2-c2cccs2)n1` [CBK283972], the viability at 28.5 h, 10 µM came to 88.2%.
The result for `CCn1cc(S(=O)(=O)NC2CCc3[nH]c4ccc(C)cc4c3C2)cn1` (stereo not shown) [CBK304790] reads 99.7%; that for `Cc1cc(COc2nc3ccccc3nc2NC[C@@H]2CCCO2)no1` [CBK174027], 119%.
Turning to `O=C(/C=C/c1cn(C2OC(CO)C(O)C2O)c(=O)[nH]c1=O)NCCCCCCNC(=O)C(F)(F)F` (stereo not shown) [CBK201231], the viability at 28.5 h, 10 µM amounted to 99.1%.
With `COc1cccc(NC(=O)N2CCN3C(=O)[C@H](Cc4ccc(O)cc4)NC(=O)[C@@H]3C2)c1` [CBK289618] the figure was 99%; with `CC(=O)N1CC2(CCCC2)c2c(F)cccc21` [CBK306339], 78.2%.
As for `CCn1c(CC2CCN(C(=O)c3ccc(C)c(C)c3)CC2)nn(C)c1=O` [CBK307133], the viability at 28.5 h, 10 µM stood at 87.8%.
With `Cc1cc(C(=O)NCCc2ccc(S(=O)(=O)NC(=O)NC3CCCCC3)cc2)n[nH]1` [CBK023997] the figure was 99.1%.
As for `CC(C)(C)OC(=O)N1CCC2(CC1)NC(=O)c1cc(-c3cccc(S(C)(=O)=O)c3)ccc1O2` [CBK131967], the viability at 28.5 h, 10 µM is 102%.
As to `CCC(O)Cn1nc(CCSC)nc1-c1cn(C)c(=O)[nH]c1=O` (stereo not shown) [CBK306588], the viability at 28.5 h, 10 µM was 83.5%.
With `CCN(CC)C(=O)c1sc2nc(-c3cccs3)nc(C)c2c1N` [CBK115366] the figure was 100%.
Regarding `Cc1nc(C)n(CC2CCCN(Cc3cn4ccccc4c3C#N)C2)n1` (stereo not shown) [CBK306103], the viability at 28.5 h, 10 µM is 92.6%.
The result for `NC(=O)COc1ccc(CNC(=O)CN2CCc3ccccc32)cc1` [CBK306330] reads 96.1%; that for `COc1ccc(C(=O)NCCCSc2nc(C(C)(C)C)cc(C(F)(F)F)n2)cc1` [CBK268690], 99.7%; that for `CNC(=O)C1(Cc2ccccc2-c2cccs2)CCN(C(=O)COc2ccccc2)CC1` [CBK285684], 118%.
The result for `COc1ccc([N+](=O)[O-])cc1NC(=O)c1ccc(-c2cc3ccccc3oc2=O)cc1` [CBK267325] reads 79.1%.
The result for `CC(C)C(=O)Nc1ccc2c(-c3ccc4c(c3)CCO4)ccnc2n1` [CBK073672] reads 87.7%; that for `Cn1c2ccccc2c2nnc(SCc3ccc4nonc4c3)nc21` [CBK267515], 89.9%; that for `Cc1ccc(CN2CCCN(C(=O)Cn3nc4ccccn4c3=O)CC2)cc1` [CBK297768], 79.7%.
As for `COc1ccccc1Nc1nc(N)nc(CSCCO)n1` [CBK266679], the viability at 28.5 h, 10 µM came to 91.4%.
With `O=C(O)C1CC=CCC1C(=O)c1c[nH]c2ccccc12` (stereo not shown) [CBK286603] the figure was 90.7%; with `O=C(O)CC(NCc1ccco1)C(=O)Nc1cccc(F)c1` (stereo not shown) [CBK286910], 97%; with `CCOC(=O)c1ccc(N2C(=O)CC(N3CCCc4ccccc43)C2=O)cc1` (stereo not shown) [CBK268720], 109%.
For `COc1ccc(Cn2c(=O)n(S(=O)(=O)c3ccc(C)cc3)c3ccccc32)cc1` [CBK106550], the viability at 28.5 h, 10 µM came to 95.1%.
With `c1cncc(-c2nccnc2N2CCN(c3ccncc3)CC2)c1` [CBK036965] the figure was 86.4%; with `O=C(Cc1c[nH]c2ccccc12)N1CCCC1c1cccc(Cc2ccccc2F)n1` (stereo not shown) [CBK285799], 89.7%.
With `COc1cc(Nc2nc(-c3cccc4ccccc34)cn3ccnc23)cc(OC)c1OC` [CBK036608] the figure was 96.1%.
In the case of `Cc1ccc(C(=O)c2coc3ccc(OCC(=O)O)cc23)cc1` [CBK263084], the viability at 28.5 h, 10 µM is 86.6%.
For `O=C(Cc1ccc(F)cc1)N1CCC(O)(c2ccccn2)CC1` [CBK283588], the viability at 28.5 h, 10 µM amounted to 97%.
As to `COc1ccc(-c2ccc(=O)n(CCN)n2)cc1` [CBK270130C], the viability at 28.5 h, 10 µM was determined as 97.2%.
For the molecule `CSc1nc(-c2ccccc2)nc(N)c1C(C)=O` [CBK270762], the viability at 28.5 h, 10 µM is 90.1%.
With `Cc1nn(CC(C)C)c(Cl)c1C(=O)Nc1nc2ccc(F)cc2s1` [CBK252188], the viability at 28.5 h, 10 µM stood at 90.4%.
Consider `COCc1c(Br)c(C)nc(OCC(=O)O)c1C#N` [CBK266532], for which the viability at 28.5 h, 10 µM amounted to 96.9%.
The result for `Cc1ccccc1C1(O)CCN(CC(O)c2ccc3c(c2)CCC3)CC1` (stereo not shown) [CBK286329] reads 88%; that for `Cn1nccc1CN1CCNC(=O)C1c1ccccc1C(F)(F)F` (stereo not shown) [CBK306422], 86.9%.
With `Cc1ccc(SC(C)C(=O)NCCCN2CCOCC2)cc1` (stereo not shown) [CBK268624] the figure was 88.5%; with `O=C1COc2ccc(S(=O)(=O)NCCOc3ccccc3)cc2N1` [CBK268480], 95.9%; with `COCC(=O)N1CCC2(CC1)CC(=O)c1cc(Cl)cc(Cl)c1O2` [CBK156440], 84.1%.
As to `Cc1[nH]c2ccccc2c1C(=O)CSc1nccn1Cc1ccccc1` [CBK297905], the viability at 28.5 h, 10 µM amounted to 76.6%.
The result for `COc1ccccc1CN(Cc1cccnc1)C(=O)CNC(C)=O` [CBK306843] reads 96.2%; that for `O[C@H]1CN[C@H](c2nc(-c3ccc(OC(F)(F)F)cc3)no2)C1` [CBK288836], 112%; that for `CC(C)(C)c1ccc2c(c1)C(CCCCN1CCCC1)(c1ccccc1)C(=O)O2` (stereo not shown) [CBK017654C], 102%.
In the case of `CCC(NC(=O)c1ccc(C(C)(C)C)[nH]c1=O)c1ccc(OC)cc1` (stereo not shown) [CBK282940], the viability at 28.5 h, 10 µM was found to be 87.8%.
On to `O=C(CNC(=O)c1ccccc1C(=O)O)Nc1ccccc1` [CBK286690], for which the viability at 28.5 h, 10 µM came to 94.1%.
As for `O=C(CN1CCOCC1)N1CCN(CCc2ccccc2)CC1` [CBK200215], the viability at 28.5 h, 10 µM was 91.4%.
Consider `CN1CCN(c2nc(-c3cccc(F)c3)cnc2N)CC1` [CBK063433], for which the viability at 28.5 h, 10 µM amounted to 100%.
For the molecule `Cc1ccc(NC(=O)CSc2nc3[nH]ncc3c(=O)[nH]2)cc1` [CBK287675], the viability at 28.5 h, 10 µM was 93.5%.
As for `Cc1ccc(COC(CN2CCCCCC2)CN2CCCCCC2)cc1` [CBK278236C], the viability at 28.5 h, 10 µM worked out at 100%.
Take `COC(=O)c1c(NC(=O)C(=O)NCc2cccnc2)sc2c1CCCC2` [CBK269170]: the viability at 28.5 h, 10 µM is 88.8%.
Consider `O=S(=O)(NCCc1nc2ccccc2[nH]1)c1ccc(Cl)c(Cl)c1` [CBK264416], for which the viability at 28.5 h, 10 µM was 93.5%.
The result for `Cc1cc(C)n(CC(=O)N2CCCC(c3cc4cccnc4[nH]3)C2)n1` (stereo not shown) [CBK284928] reads 96.2%; that for `CN(C)CCC(O)(c1ccccc1)c1cc2c(cc1Cl)CCC2` (stereo not shown) [CBK010000C], 99.5%.
The result for `O=C(/C=C\c1ccc(Cl)cc1Cl)N1CCN(Cc2ccc3c(c2)OCO3)CC1` [CBK074371] reads 97.3%; that for `COc1ccc(C)cc1C1(CNC(=O)C2CCC(N)C2)CCOCC1` (stereo not shown) [CBK304312C], 107%.
With `COc1ccccc1N(CC(O)Cn1nc(C)cc1C)S(=O)(=O)c1ccccc1` (stereo not shown) [CBK264546] the figure was 100%; with `Cc1nc(N)sc1-c1nnc(Nc2ccccc2)s1` [CBK267353], 82.7%; with `Cc1ccc(-c2nccnc2OCc2ccccc2)cc1C` [CBK106861], 90.8%.
`NCCNC(=O)c1cc2cc(OC(F)(F)F)ccc2[nH]1` [CBK107368]: the viability at 28.5 h, 10 µM was 118%.
The result for `O=C1c2ccc(Oc3ccc4c(c3)C(=O)N(c3cccnc3)C4=O)cc2C(=O)N1c1cccnc1` [CBK262773] reads 88.6%.
For `Cc1cc(Cl)ccc1OC(C)C(=O)Nc1cc(C(=O)O)cc(C(=O)O)c1` (stereo not shown) [CBK266483], the viability at 28.5 h, 10 µM stood at 103%.
The result for `N#C/C(=C\c1c[nH]nc1-c1ccccc1)c1nc(-c2cccc([N+](=O)[O-])c2)cs1` [CBK267252] reads 96.8%; that for `COc1ccc([C@@]23CCCN(C(=O)Nc4ccc(C)c(F)c4)C[C@@H]2N(C)CC3)cc1OC` [CBK056680T], 110%; that for `CC1CCc2c(sc(NC(=O)c3cccs3)c2C#N)C1` (stereo not shown) [CBK304625], 101%.
With `COc1ccc(-c2nc(-c3cc4ccccc4o3)cnc2N)cc1OC` [CBK064099] the figure was 63.2%.
Regarding `Cn1cc(-c2ncc(OCCOc3ccccc3)nc2N)cn1` [CBK145171], the viability at 28.5 h, 10 µM is 108%.
